# Measurements reported in PubChem BioAssay AID742 (SRMLSC, 2007).
# Active and inactive are the calls of the source. No rule for the calls is given here.
# Columns and labels:
# [1] = Her2 expression suppression with viability readout – cell-based, AlphaScreen, CellTiter-Glo viability, dose response (AID 742); settings: human cells, Her2 expression AlphaScreen; CTG viability; at 9.62 µM (top of the series)
# [2] = system: human cells, Her2 expression AlphaScreen; CTG viability; experiment: as above; settings: viability, CellTiter-Glo
Compound,Her2 inhibition [1],EC50 [2] [µM]
COc1ccc(-n2nnc3c(SCC(=O)Nc4ccc5c(c4)OCCO5)ncnc32)cc1,-9.58% (inactive),> 9.62
O=S1(=O)Nc2c(ccc3cccnc23)-c2ccccc21,12.6% (inactive),> 9.62
CCCS(=O)(=O)N1CCC(C(=O)N2CCC(Cc3ccccc3)CC2)CC1,-12.4% (inactive),> 9.62
CC(=O)Nc1ccc(NS(=O)(=O)c2cc(C)sc2C)cc1,0.09% (inactive),> 9.62
COc1cccc(-c2nnn(CC(=O)O)n2)c1,-1.29% (inactive),> 9.62
Cc1ccccc1-n1nc2c(c1NC(=O)c1cc3ccccc3oc1=O)CS(=O)(=O)C2,-11.6% (inactive),> 9.62
OC(CN1CCN(c2cccc(C(F)(F)F)c2)CC1)c1c[nH]c2ccccc12 (stereo not drawn),4.59% (inactive),> 9.62
Clc1ccc(CSC2=NCCCN2)cc1Cl,-30.5% (inactive),> 9.62
Oc1ccc(N=Cc2ccc(-c3cccs3)s2)cc1,37.6% (inactive),< 0.024
Cc1nnc(SCc2nnc(-c3ccccc3Br)o2)n1-c1ccccc1,-17.1% (inactive),> 9.62
CC(C)OCCCNC(=O)c1c(N)n(Cc2cccs2)c2nc3ccccc3nc12,-14.5% (inactive),> 9.62
Cc1ccc(S(=O)(=O)c2c(C)nn(C(C)(C)C)c2OC(=O)c2ccc(Br)o2)cc1,4.78% (inactive),> 9.62
O=C(c1ccc(F)cc1)C(CN1CCOCC1)c1ccccc1 (stereo not drawn),28.5% (inactive),> 9.62
CCc1ccc(C2CC(=O)N3CN(c4ccccc4)CSC3=C2C#N)cc1 (stereo not drawn),21.4% (inactive),> 9.62
Cc1cccc(C)c1NC1=NCCCS1,6.69% (inactive),> 9.62
Cc1[nH]nc2c1C(C1CC=CCC1)C(C#N)=C(N)O2 (stereo not drawn),-29.3% (inactive),> 9.62
CCOC(=O)c1c(C)oc2c1c(C(c1ccncc1)N1CCOCC1)c(O)c1ccccc12 (stereo not drawn),23.5% (inactive),> 9.62
CCCn1c(SCC(=O)Nc2cccc(C)n2)nnc1-c1ccco1,-2.69% (inactive),> 9.62
O=C1/C(=N/n2cnnc2)c2ccccc2N1Cc1ccccc1,-25% (inactive),> 9.62
N#CC(C#N)=c1ccc2c(c1)N1C3=C(CCCC3)CC3CCCCC31N=2 (stereo not drawn),24.3% (inactive),> 9.62
CC1CC(C)(C)Nc2ccc(OC(=O)c3ccco3)cc21 (stereo not drawn),-5.22% (inactive),> 9.62
CCOC(=O)CCS(=O)(=O)c1nc(-c2ccccc2)cc(C(F)(F)F)n1,27.6% (inactive),> 9.62
O=C1c2cccc3cccc(c23)C(=O)N1c1nncs1,-25.5% (inactive),> 9.62
CCN1C(=O)CC(C(=O)Nc2ccc(F)cc2)SC1=Nc1ccc2c(c1)OCO2 (stereo not drawn),-33.1% (inactive),> 9.62
COc1ccc2oc(=O)c(-c3nnc(NCc4ccco4)s3)cc2c1,-2.67% (inactive),> 9.62
N#CC(C#N)=c1ccc2c(c1)NC1(CCCCC1)N=2,43.8% (inactive),> 9.62
CC1CN=C(N(C(=O)Nc2ccccc2)c2ccc(S(=O)(=O)N3CCOCC3)cc2)S1 (stereo not drawn),-5.35% (inactive),> 9.62

Compound,Her2 inhibition [1],EC50 [2] [µM]
CCOc1ccccc1N(CC(=O)N1CCOCC1)S(=O)(=O)c1ccccc1,3.98% (inactive),> 9.62
CCOC(=O)c1c(C)[nH]c(C(=O)OC/C(O)=C(\C#N)c2nc3ccccc3[nH]2)c1C,16.6% (inactive),> 9.62
COc1ccc2sc(NC(=O)CC(C)C)nc2c1,2.84% (inactive),> 9.62
Cc1cc(-n2c(C)cc(C(=O)CSc3nnnn3-c3ccc(Cl)cc3)c2C)no1,-6.46% (inactive),> 9.62
[O-][N+]1=c2ccc(Nc3ccccc3)cc2=NC12CCCCC2,-11% (inactive),> 9.62
O=C(Cc1cscn1)c1ccc(O)cc1O,3.58% (inactive),> 9.62
COc1ccccc1C(CC(=O)Nc1nccs1)c1ccco1 (stereo not drawn),3.82% (inactive),> 9.62
Cn1c(=O)c2c(SCc3cccc(C(F)(F)F)c3)nc(-c3ccco3)nc2n(C)c1=O,-20.9% (inactive),> 9.62
Cc1ccc(-n2nc(C)c3c2OC(N)=C(C#N)C3c2ccc(F)cc2)cc1 (stereo not drawn),-1.17% (inactive),> 9.62
O=S(=O)(CCSc1nc2ccccc2o1)c1nc2ccccc2s1,-10.1% (inactive),> 9.62
COc1cc(-c2nc(-c3ccc(NC(=O)c4ccc5c(c4)OCO5)cc3)no2)cc(OC)c1OC,-12.5% (inactive),> 9.62
Cc1cc(NC(=O)CNC(=O)C2CCCCC2)no1,12.1% (inactive),> 9.62
Cc1cc(-c2nnc3n2N=C(c2ccc(-c4ccccc4)cc2)CS3)n[nH]1,-21.4% (inactive),> 9.62
CCCCCCCCNC(C)C(O)c1ccc(SC(C)C)cc1 (stereo not drawn),-16.3% (inactive),> 9.62
CC(C)NCC(O)Cn1c2c(c3ccccc31)CCc1c-2cnn1-c1ccccc1 (stereo not drawn),11.7% (inactive),> 9.62
COc1ccc(CSc2nnnn2Cc2ccccc2)cc1OC,-31.4% (inactive),> 9.62
Cc1ccc(S(=O)(=O)N2CCC(C(=O)N[C@@H](C)C(=O)NCCc3ccccc3)CC2)cc1,-5.1% (inactive),> 9.62
CCCCCNC(=O)C(C#N)c1nc2ccccc2nc1N1CCCC1 (stereo not drawn),-19% (inactive),> 9.62
CCOC(=O)c1ccc(N=c2sc(C(=O)OC)cc(=O)n2Cc2ccco2)cc1,-0.92% (inactive),> 9.62
N#Cc1c(N)sc(=S)c2c1CCN(Cc1ccccc1)C2,-20.9% (inactive),> 9.62
O=C1C(C2=C(O)c3ccccc3C2=O)=Nc2ccccc21,-1.36% (inactive),< 0.024
N#Cc1ccc(-c2ccco2)nc1SCc1ccccc1,14.8% (inactive),> 9.62
COc1ccc(Cl)c(Cn2c(NCc3ccco3)nc3c2c(=O)n(C)c(=O)n3C)c1,0.72% (inactive),> 9.62
COc1ccccc1-n1c(SCC(=O)NC(C)(C)C)nc(O)cc1=O,8.19% (inactive),> 9.62
CCCOc1ccc(C(=O)CCN2CCCCC2)cc1,-16.8% (inactive),> 9.62
Cc1ccc(S(=O)(=O)CCC(=O)c2ccc(O)cc2O)cc1,1.34% (inactive),> 9.62
Cc1ccc(C2CC(=O)N3CN(c4ccc(Br)cc4)CSC3=C2C#N)o1 (stereo not drawn),16% (inactive),> 9.62

Compound,Her2 inhibition [1],EC50 [2] [µM]
CCCCNC(=O)OCCNC(=O)NC,-40% (inactive),> 9.62
Cn1nnnc1SCC(=O)Nc1c(Cl)cccc1Cl,-18.1% (inactive),> 9.62
CCCCn1c(SCc2c(C)noc2C)nc2cc(S(N)(=O)=O)ccc21,-2.2% (inactive),> 9.62
CC1=CC(C)(C)Nc2ccc(OC(=O)c3ccco3)cc21,1.48% (inactive),> 9.62
S=C1SCN(CCN2CCOCC2)CN1Cc1ccccc1,-20.1% (inactive),> 9.62
Cc1c(NC(=O)c2cccc(F)c2)c(=O)n(-c2ccccc2)n1C,10.6% (inactive),> 9.62
C=C(C)COc1ccc(-c2n[nH]c(C)c2-c2ccccc2)c(O)c1,-3.91% (inactive),> 9.62
c1ccc(CNC2=NCCC2)nc1,-3.59% (inactive),> 9.62
Clc1ccc(COC(Cn2ccnc2)c2ccc(Cl)cc2Cl)cc1 (stereo not drawn),1.73% (inactive),> 9.62
O=C(CSc1oc(-c2ccccc2)nc1S(=O)(=O)c1ccc(F)cc1)NCC1CCCO1 (stereo not drawn),11.4% (inactive),> 9.62
N#CCSc1nc2cc(C(=O)N3CCC(C(N)=O)CC3)ccc2c2nc3ccccc3n12,5.14% (inactive),> 9.62
C=CCn1c(=O)c2ccccc2n2c(SCc3cc(=O)n4ccsc4n3)nnc12,-18.6% (inactive),> 9.62
COC(=O)c1sccc1NC(=O)c1csc(C)c1,29.8% (inactive),> 9.62
N#C/C(=C/c1ccc(N2CCCCCC2)o1)c1ccc(F)cc1,4.22% (inactive),> 9.62
O=c1[nH]c(Nc2nc3ccccc3o2)nc2c1CCCC2,-16.5% (inactive),> 9.62
CCOc1ccc(-c2nnn(CC(=O)c3cc(OC)ccc3OC)n2)cc1,-22.6% (inactive),> 9.62
CC(C)N(Cc1nc(-c2ccccc2)no1)C(=O)CN1C(=O)c2ccccc2C1=O,-1.52% (inactive),> 9.62
CCOc1ccccc1NC(=O)Cn1nnc(-c2ccc(OCC)c(OCC)c2)n1,-13.9% (inactive),> 9.62
CNCCCC12CCC(c3ccccc31)c1ccccc12,-11.5% (inactive),> 9.62
C1CCC(C(CC2CCCCN2)C2CCCCC2)CC1 (stereo not drawn),-33.2% (inactive),> 9.62
CCn1c(SCC(=O)C(C)(C)C)nnc1-c1cnccn1,2.82% (inactive),> 9.62
C#CCOC(=O)c1ccccc1C(=O)OCC#C,-22.6% (inactive),> 9.62
CC1(C)CC(=O)NC=C(c2ccccc2)C1,0.71% (inactive),> 9.62
CC(C)COC(=O)N1CC(O)CC1C(=O)O (stereo not drawn),7.84% (inactive),> 9.62
O=c1cccc(-c2ccccc2)[nH]1,-24.1% (inactive),> 9.62
